In article PMC6599039, “Structural and functional analysis of the role of the chaperonin CCT in mTOR complex assembly” (Nature Communications, 2019):

Molecular target: T1, CCT8 in the human mLST8-CCT complex (Homo sapiens, UniProt P50990)
T1 construct: isolated from HEK-293T cells co-expressing His6-myc-PhLP1; no nucleotide added; with T-complex protein 1 subunit alpha; T-complex protein 1 subunit beta; T-complex protein 1 subunit gamma; T-complex protein 1 subunit delta; T-complex protein 1 subunit epsilon; T-complex protein 1 subunit zeta; T-complex protein 1 subunit eta; Target of rapamycin complex subunit LST8
T1 sequence (P50990 2-548): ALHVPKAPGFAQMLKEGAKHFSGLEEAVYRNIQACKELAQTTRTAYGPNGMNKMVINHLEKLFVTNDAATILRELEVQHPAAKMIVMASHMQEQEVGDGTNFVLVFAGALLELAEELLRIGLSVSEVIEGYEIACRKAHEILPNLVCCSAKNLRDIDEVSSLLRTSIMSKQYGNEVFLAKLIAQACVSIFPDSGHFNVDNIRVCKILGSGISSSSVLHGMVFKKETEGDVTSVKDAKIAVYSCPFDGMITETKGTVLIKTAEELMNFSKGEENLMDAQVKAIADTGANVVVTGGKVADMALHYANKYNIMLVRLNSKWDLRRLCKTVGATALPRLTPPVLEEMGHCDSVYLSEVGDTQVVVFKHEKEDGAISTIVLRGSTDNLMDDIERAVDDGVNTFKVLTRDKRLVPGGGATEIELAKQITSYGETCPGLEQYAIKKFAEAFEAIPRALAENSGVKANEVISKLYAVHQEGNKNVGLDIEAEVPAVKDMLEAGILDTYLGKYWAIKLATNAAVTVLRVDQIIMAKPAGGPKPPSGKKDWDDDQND
Assay: cryo-EM structure of the complex ([…] A)
Details: co-purified nucleotide, none added; equatorial nucleotide-binding pocket of both CCT8 subunits

Nc1ncnc2c1ncn2[C@@H]1O[C@H](COP(=O)(O)OP(=O)(O)O)[C@@H](O)[C@H]1O [ADP]
cryo-EM structure of the complex (4.0 A): nucleotide-binding pocket of either of the CCT8 subunits revealed electron density that is clearly attributable to ADP
